Experimental data published in patent US9765056B2, “Indole and pyrrole compounds, a process for their preparation and pharmaceutical compositions containing them” (LES LABORATOIRES SERVIER, priority 2013, dated 2017).
Structures can show the parent of a compound that is named as a salt.

How the values were obtained:
Bcl-2 protein = Bcl-2 protein (histag-Bcl-2, UniProtKB P10415) (Homo sapiens (Human), UniProt P10415); assay: Inhibition of Bcl-2 by the fluorescence polarisation technique; assay type: binding; details: fluorescence polarisation test; method A, or method B where underlined (underlining not visible); read-out: IC50 (nM) Bcl-2 FP
From the text: Inhibition of Bcl-2 by the fluorescence polarisation technique

[1] = tested on: RS4;11 leukaemia tumour line; assay: In vitro cytotoxicity, Microculture Tetrazolium Assay (MTT); assay type: cell-based; details: Homo sapiens; RS4;11 cells, 48 hours exposure
Description: The cytotoxicity studies were carried out on the RS4;11 leukaemia tumour line.
The cells are distributed onto microplates and exposed to the test compounds for 48 hours. The cell viability is then quantified by a colorimetric assay, the Microculture Tetrazolium Assay (Cancer Res., 1987, 47, 939-942).

Sequence of Bcl-2 protein (P10415 whole entry): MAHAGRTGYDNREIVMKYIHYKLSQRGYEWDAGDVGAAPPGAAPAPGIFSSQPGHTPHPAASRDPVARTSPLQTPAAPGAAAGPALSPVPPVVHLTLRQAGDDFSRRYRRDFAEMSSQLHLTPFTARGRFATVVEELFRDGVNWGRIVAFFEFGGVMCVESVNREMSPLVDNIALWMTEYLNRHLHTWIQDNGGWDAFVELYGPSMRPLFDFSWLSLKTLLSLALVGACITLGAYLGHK

IC50 (Bcl-2 protein) [nM]	Compound	IC50 [1] [nM]
5.9	Cc1cc(C(=O)N(c2ccc(O)cc2)c2ccc3c(ccn3C)c2)cn1-c1cc2c(cc1C(=O)N1Cc3ccccc3C[C@H]1CN1CCOCC1)CCO2 [Example 118, N-(4-Hydroxyphenyl)-5-methyl-N-(1-methyl-1H-indol-5-yl)-1-(5-{[(3S)-3-(morpholin-4-ylmethyl)-3,4-dihydroisoquinolin-2(1H)-yl]carbonyl}-2,3-dihydro-1-benzofuran-6-yl)-1H-pyrrole-3-carboxamide]	114
21.6	NC[C@@H]1Cc2ccccc2CN1C(=O)c1cc(NC(=O)CSc2ccccc2)ccc1-n1nc(C(=O)N(c2ccccc2)c2ccccc2)c2ccccc21 [Example 149, 1-{2-[(3S)-3-(Aminomethyl)-1,2,3,4-tetrahydroisoquinoline-2-carbonyl]-4-[2-(phenylsulphanyl)acetamido]phenyl}-N,N-diphenyl-1H-indazole-3-carboxamide]	340
8.1	Cc1cc(C(=O)N(c2ccc(O)cc2)c2ccc3c(c2)CCN3)cn1-c1cc2c(cc1C(=O)N1Cc3ccccc3C[C@H]1CN1CCOCC1)CCC2 [Example 110, N-(2,3-Dihydro-1H-indol-5-yl)-N-(4-hydroxyphenyl)-5-methyl-1-(6-{[(3S)-3-(morpholin-4-ylmethyl)-3,4-dihydroisoquinolin-2(1H)-yl]carbonyl}-2,3-dihydro-1H-inden-5-yl)-1H-pyrrole-3-carboxamide hydrochloride]	291
23.5	O=C(c1cn(-c2cc(Cl)ccc2C(=O)N2Cc3ccccc3C[C@H]2CN2CCOCC2)c2ccccc12)N(c1ccccc1)c1ccc(O)cc1 [Example 186, 1-{5-Chloro-2-[(3S)-3-(morpholin-4-ylmethyl)-1,2,3,4-tetrahydroisoquinoline-2-carbonyl}phenyl]-N-(4-hydroxyphenyl)-N-phenyl-1H-indole-3-carboxamide hydrochloride]	626
35.5	Cc1cc(C(=O)N(c2ccccc2)c2ccc(O)cc2)cn1-c1cc2c(cc1C(=O)N1Cc3ccccc3C[C@H]1CN1CCOCC1)OCO2 [Example 108, N-(4-Hydroxyphenyl)-5-methyl-1-(6-{[(3S)-3-(morpholin-4-ylmethyl)-3,4-dihydroisoquinolin-2(1H)-yl]carbonyl}-1,3-benzodioxol-5-yl)-N-phenyl-1H-pyrrole-3-carboxamide hydrochloride]	544
16.7	Cc1cc(C(=O)N(c2ccc(O)cc2)c2cnc3c(ccn3C)c2)cn1-c1cc2c(cc1C(=O)N1Cc3ccccc3C[C@H]1CN1CCOCC1)OCO2 [Example 206, N-(4-Hydroxyphenyl)-5-methyl-N-(1-methyl-1H-pyrrolo[2,3-b]pyridin-5-yl)-1-(6-{[(3S)-3-(morpholin-4-ylmethyl)-3,4-dihydroisoquinolin-2(1H)-yl]-carbonyl}-1,3-benzodioxol-5-yl)-1H-pyrrole-3-carboxamide hydrochloride]	72.4
11.8	Cc1cc(C(=O)N(c2ccc(O)cc2)c2cccc(N3CCN(C)CC3)c2)cn1-c1cc2c(cc1C(=O)N1Cc3ccccc3C[C@H]1C)OCO2 [Example 112, N-(4-Hydroxyphenyl)-5-methyl-1-(6-{[(3R)-3-methyl-3,4-dihydroisoquinolin-2(1H)-yl]carbonyl}-1,3-benzodioxol-5-yl)-N-[3-(4-methylpiperazin-1-yl)phenyl]-1H-pyrrole-3-carboxamide hydrochloride]	281
35	NC[C@@H]1Cc2ccccc2CN1C(=O)c1cc(NC(=O)COc2ccccc2)ccc1-n1nc(C(=O)N(c2ccccc2)c2ccccc2)c2ccccc21 [Example 144, 1-{2-[(3S)-3-(Aminomethyl)-1,2,3,4-tetrahydroisoquinoline-2-carbonyl]-4-(2-phenoxyacetamido)phenyl}-N,N-diphenyl-1H-indazole-3-carboxamide]	1380
4.4	COc1cc(-n2cc(C(=O)N(c3ccc(O)cc3)c3ccc4[nH]ccc4c3)c3ccccc32)c(C(=O)N2Cc3ccccc3C[C@H]2CN2CCN(C)CC2)cc1O [Example 202, 1-{4-Hydroxy-5-methoxy-2-[(3S)-3-[(4-methylpiperazin-1-yl)methyl]-1,2,3,4-tetrahydroisoquinoline-2-carbonyl]phenyl}-N-(4-hydroxyphenyl)-N-(1H-indol-5-yl)-1H-indole-3-carboxamide]	798
18.8	CN1CCN(C[C@@H]2Cc3ccccc3CN2C(=O)c2cc3c(cc2-n2cc(C(=O)N(c4ccccc4)c4ccccc4)c4ccccc42)OCO3)CC1 [Example 177, 1-{6-[(3S)-3-[(4-Methylpiperazin-1-yl)methyl]-1,2,3,4-tetrahydroisoquinoline-2-carbonyl]-2H-1,3-benzodioxol-5-yl}-N,N-diphenyl-1H-indole-3-carboxamide dihydrochloride]	568

Further lines, the compound ahead of its results:

Compound	IC50 (Bcl-2 protein) [nM]	IC50 [1] [nM]
Cc1cc(C(=O)N(c2ccccc2)c2ccc(O)cc2)cn1-c1cc(Cl)ccc1C(=O)N1Cc2ccccc2C[C@H]1CN(C)C [Example 13, 1-(5-Chloro-2-{[(3S)-3-[(dimethylamino)methyl]-3,4-dihydroisoquinolin-2(1H)-yl]carbonyl}phenyl)-N-(4-hydroxyphenyl)-5-methyl-N-phenyl-1H-pyrrole-3-carboxamide]	16.2	462
Cc1cc(C(=O)N(c2ccccc2)c2ccc(O)cc2)cn1-c1cc(Br)ccc1C(=O)N1Cc2ccccc2C[C@H]1CN1CCN(C)CC1 [Example 22, 1-(5-Bromo-2-{[(3S)-3-[(4-methylpiperazin-1-yl)methyl]-3,4-dihydroisoquinolin-2(1H)-yl]carbonyl}phenyl)-N-(4-hydroxyphenyl)-5-methyl-N-phenyl-1H-pyrrole-3-carboxamide]	10.7	142
CN1CCN(C[C@@H]2Cc3ccccc3CN2C(=O)c2cc3c(cc2-n2cc(C(=O)N(c4ccc(O)cc4)c4ccc5c(c4)CCN5)c4ccccc42)OCO3)CC1 [Example 47, N-(2,3-Dihydro-1H-indol-5-yl)-N-(4-hydroxyphenyl)-1-(6-{[(3S)-3-[(4-methylpiperazin-1-yl)methyl]-3,4-dihydroisoquinolin-2(1H)-yl]carbonyl}-1,3-benzodioxol-5-yl)-1H-indole-3-carboxamide]	9.2	50.3
Cc1cc(C(=O)N(c2ccccc2)c2ccc(O)cc2)cn1-c1ccc(OC(F)(F)F)cc1C(=O)N1Cc2ccccc2C[C@H]1CN1CCN(C)CC1 [Example 19, N-(4-Hydroxyphenyl)-5-methyl-1-[2-{[(3S)-3-[(4-methylpiperazin-1-yl)methyl]-3,4-dihydroisoquinolin-2(1H)-yl]carbonyl}-4-(trifluoromethoxy)phenyl]-N-phenyl-1H-pyrrole-3-carboxamide]	245	2360
Cc1cc(C(=O)N(c2ccc(O)cc2)c2ccc(F)cc2)cn1-c1cc(Cl)ccc1C(=O)N1Cc2ccccc2C[C@H]1CN1CCN(C)CC1 [Example 66, 1-(5-Chloro-2-{[(3S)-3-[(4-methylpiperazin-1-yl)methyl]-3,4-dihydroisoquinolin-2(1H)-yl]carbonyl}phenyl)-N-(4-fluorophenyl)-N-(4-hydroxyphenyl)-5-methyl-1H-pyrrole-3-carboxamide]	6.6	148
Cc1cc(C(=O)N(c2ccc(O)cc2)c2ccc(F)cc2)cn1-c1cc2c(cc1C(=O)N1Cc3ccccc3C[C@H]1CN1CCN(C)CC1)OCO2 [Example 84, N-(4-Fluorophenyl)-N-(4-hydroxyphenyl)-5-methyl-1-(6-{[(3S)-3-[(4-methylpiperazin-1-yl)methyl]-3,4-dihydroisoquinolin-2(1H)-yl]carbonyl}-1,3-benzodioxol-5-yl)-1H-pyrrole-3-carboxamide]	6.7	146
CN1CCN(C[C@@H]2Cc3ccccc3CN2C(=O)c2cc3c(cc2-n2cc(C(=O)N(CCc4ccccc4)c4ccc(Cl)cc4)c4ccccc42)OCO3)CC1 [Example 36, N-(4-Chlorophenyl)-1-(6-{[(3S)-3-[(4-methylpiperazin-1-yl)methyl]-3,4-dihydroisoquinolin-2(1H)-yl]carbonyl}-1,3-benzodioxol-5-yl)-N-(2-phenylethyl)-1H-indole-3-carboxamide]	1110	2420
Cc1ccc(N(C(=O)c2cn(-c3cc4c(cc3C(=O)N3Cc5ccccc5C[C@H]3CN3CCN(C)CC3)OCO4)c3ccccc23)c2ccc(O)cc2)cc1 [Example 32, N-(4-Hydroxyphenyl)-N-(4-methylphenyl)-1-(6-{[(3S)-3-[(4-methylpiperazin-1-yl)methyl]-3,4-dihydroisoquinolin-2(1H)-yl]carbonyl}-1,3-benzodioxol-5-yl)-1H-indole-3-carboxamide]	3.5	63.7
Cc1cc(C(=O)N(c2ccc(O)cc2)c2ccc3c(ccn3C)c2)cn1-c1cc2c(cc1C(=O)N1Cc3ccccc3C[C@H]1CN1CCN(C)CC1)OCO2 [Example 90, N-(4-Hydroxyphenyl)-5-methyl-N-(1-methyl-1H-indol-5-yl)-1-(6-{[(3S)-3-[(4-methylpiperazin-1-yl)methyl]-3,4-dihydroisoquinolin-2(1H)-yl]carbonyl}-1,3-benzodioxol-5-yl)-1H-pyrrole-3-carboxamide]	3.6	76.6
CN1CCN(C[C@@H]2Cc3ccccc3CN2C(=O)c2ccc(Br)cc2-n2cc(C(=O)N(c3ccc(O)cc3)c3ccc(F)cc3)c3ccccc32)CC1 [Example 71, 1-(5-Bromo-2-{[(3S)-3-[(4-methylpiperazin-1-yl)methyl]-3,4-dihydroisoquinolin-2(1H)-yl]carbonyl}phenyl)-N-(4-fluorophenyl)-N-(4-hydroxyphenyl)-1H-indole-3-carboxamide]	8.3	196
